Measurements reported in patent US6417399B1, “Amelioration of neurological disorders by the administration of (2R),(3S), and/or (2S),3(S) stereoisomers of valnoctamide” (Yissum Research Development Company of the Hebrew …, priority 1997, dated 2002).
“And” between values parts separate entries of the source, which are not always exact repeats. Equal values may be shown once.

Columns and labels:
epoxide hydrolase = target: T1, epoxide hydrolase (Homo sapiens, UniProt P07099); conditions: racemic VCD; cited from earlier work
T1 construct: decreased clearance of CBZ-E in patients; host or cells: patients in vivo (endogenous enzyme)
T1 sequence (P07099 1-455): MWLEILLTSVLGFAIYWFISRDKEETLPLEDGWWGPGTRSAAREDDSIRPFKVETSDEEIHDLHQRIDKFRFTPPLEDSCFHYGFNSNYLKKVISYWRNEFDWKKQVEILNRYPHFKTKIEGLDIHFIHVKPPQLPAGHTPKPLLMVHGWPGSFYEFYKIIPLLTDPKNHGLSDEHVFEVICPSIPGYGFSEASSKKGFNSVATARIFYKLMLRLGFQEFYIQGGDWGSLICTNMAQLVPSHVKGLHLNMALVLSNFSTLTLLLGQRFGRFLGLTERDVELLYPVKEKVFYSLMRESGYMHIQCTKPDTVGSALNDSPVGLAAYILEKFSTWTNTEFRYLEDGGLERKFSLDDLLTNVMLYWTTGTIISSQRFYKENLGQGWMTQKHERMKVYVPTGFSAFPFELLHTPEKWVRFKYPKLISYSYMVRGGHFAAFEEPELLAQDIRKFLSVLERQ

[1] = animal models; cited from earlier work
[2] = in vivo; cited from earlier work
[3] = Pharmacokinetics of VCD stereoisomers in plasma after single oral dose of racemic valnoctamide to healthy subjects; format: in vivo, human
Method: Healthy Subjects Seven healthy male volunteers, aged 20-31 years, weighing 61 to 85 kg, received 2×200 mg valnoctamide tablets (Nirvanil@) at 08:00 hours after an overnight fast. Venous blood samples were taken through an indwelling catheter 0, 0.5, 1, 2, 3, 4, 5, 6, 8, 10, 12 and 24 hours after dosing. Food was witheld for 4 hours after dosing.
(§1) Plasma Handling and Analytical Assays Plasma samples were separated immediately by centrifugation at 2,000 g for 10 minutes and stored at −20° C. until assaying (VCD is stable at −20° C.). The VCD plasma samples were analyzed by a gas chromatograph (HP 5890 series II)-mass spectrometer (HP 5989A)-GC-MS data system equipped with chiral capillary column. The mass spectrometer was operated in E1 mode at 70eV, the source temperature of the MS was maintained at 200° C. and the quadruple at 100° C. Mass units and their relative abundance were calibrated with perfluorotributylamine (PFTBA). Spectra were collected in the range of […], and the chiral analysis started 18 minutes after injection. Gas chromatograph (GC) oven temperature programming conditions were as follows: 50° C. for 1 minute, then increasing at a rate of 8° C./minute until 100° C., holding for a minute then 4° C./minute until reaching a final temperature of 250° C. The injector temperature is 240° C. and the GC-MS transfer line temperature is 250° C. Inlet pressure is 5 psi with a linear flow rate 20 cm/second. Helium was used as the carrier gas. Chromatographic resolution of the VCD stereoisomers was accomplished by a direct separation on a chiral stationary phase (CSP) column. The CSP consisted of a Chirasil-γ-Dex (octakis (3-O-butanoyl-2,6-di-o-pentyl)-γ-cyclodextrin chemically linked via a 6-mono-octamethylene spacer to a dimethylpolysiloxane. The 0.25 μm Chirasil-γ-Dex was coated on a 25 m×250 μm (id) fused silica capillary column. This CSP of a cyclodextin derivative allows complete baseline resolution of the four stereoisomers (α=1.04, Rs=2.0-2.4) in 24 minutes as depicted in FIG. 2. Intra and inter-day variability in the retention times of the four VCD stereoisomers was less than 10%. A calibration curve was established by spiking drug-free plasma samples with known amounts of racemic VCD at a concentration range of 0.2 mg/L to 8 mg/L (or 0.05 mg/L to 2 mg/L of each of the four VCD stereoisomers).
(§2) Pharmacokinetic and Statistical Analysis Pharmacokinetic parameters were calculated by noncompartmental analysis according to statistical moment theory. Peak plasma concentrations (Cmax) and peak times (tmax) were derived directly from the measured values. The linear terminal slopes (λ) of the log-concentration of each VCD stereoisomer versus time curves were calculated by the peeling procedure. Half life (t½) values were calculated as 0.693/λ. Areas under the plasma concentration versus time curve (AUC), after single dosing, were calculated by the trapezoidal rule with extrapolation to infinity by dividing the last measured concentration by the terminal slope. During repeated administration AUC was calculated over the last two dosing intervals by using the trapezoidal rule. Mean residence time (MRT) was calculated after single dosing as AUMC/AUC, in which AUMC is the area under the concentration×time product versus time curve from zero to infinity. Following single dosing, oral clearance (CL/F, in which F is the oral availability) and apparent volume of distribution at steady state (Vss/F) were calculated as Dose/AUC and as MRT×CL/F, respectively. Following repeated dosing, CL/F was calculated from the quotient of the dose (200 mg) and the AUC obtained during one dosing interval (defined as one-half of the AUC calculated over two consecutive dosing intervals). Comparison of the pharmacokinetic parameters of all four VCD stereoisomers was made by ANOVA.

[4] = Pharmacokinetics of VCD stereoisomers in plasma after repeated oral dosing of racemic valnoctamide to epileptic patients; format: in vivo, human; conditions: repeated oral racemic VCD 200 mg tid, last day
Method: (§3) Patients Six epileptic patients (four men and two women aged 23-35 years, with a body weight of 56-85 kg) were studied. All had been receiving a constant carbamazepine dose (800-1200 mg/day) for at least three months. One patient was also receiving phenytoin (250 mg/day) and a second patient phenobarbital (150 mg/day). Each patient received add-on VCD for eight consecutive days at a dosage of 400 mg on day 1 (single dose day), followed by 200 mg three times daily (tid) for seven days. On the last day, only the morning and the midday doses were administered. Blood samples for plasma VCD levels were collected at 0, 0.25, 0.5, 1, 1.5, 2, 3, 4, 5, 6, 8, 10, 12 and 24 hours after the first and the last morning dose. Additional samples were taken at times 0, 0.5, 1, and 2 hours after the morning dose on the last treatment day.
as §1
as §2, with “Following repeated dosing, CL/F was calculated from the quotient of the dose (200 mg) and the AUC obtained during one dosing interval (defined as one-half of the AUC calculated over two consecutive dosing intervals). Comparison of the pharmacokinetic parameters of all four VCD stereoisomers was made by ANOVA.” left out

[5] = Pharmacokinetics of VCD stereoisomers in plasma after single oral dose of racemic valnoctamide to epileptic patients; format: in vivo, human; conditions: for CL/F / Cmax / MRT / tmax / t½: single oral 400 mg racemic VCD
Method: as §3, §1
as §2, with “Following repeated dosing, CL/F was calculated from the quotient of the dose (200 mg) and the AUC obtained during one dosing interval (defined as one-half of the AUC calculated over two consecutive dosing intervals). Comparison of the pharmacokinetic parameters of all four VCD stereoisomers was made by ANOVA.” left out

[6] = in animals; cited from earlier work
[7] = Mean ± SD of seven healthy subjects, single oral 400 mg racemic VCD
[8] = individual healthy subjects, single oral 400 mg racemic VCD
[9] = Mean ± SD of six epileptic patients
[10] = individual epileptic patients on carbamazepine

SMILES: CCC(C)C(CC)C(N)=O (racemic) [VCD, 2-ethyl-3-methyl pentanamide]
- inhibition of the enzyme epoxide hydrolase (epoxide hydrolase): inhibitor of the enzyme epoxide hydrolase
- anticonvulsant potency relative to VPA [1]: three times more potent
- half-life relative to that of VPD [2]: ten times higher

SMILES: CCC(C)C(CC)C(N)=O (single isomer, unassigned; stereoisomer d) [Stereoisomer D]
- CL/F [3, 7]: 4.6 ± 0.7 L/h
- Cmax [3, 7]: 1.5 ± 0.2 mg/L
- MRT [3, 7]: 15 ± 3 h
- tmax [3, 7]: 0.7 ± 0.3 h
- t½ [3, 7]: 10 ± 2 h
- t½ ([3]; Mean ± SD of seven healthy subjects, single oral 400 mg racemic VCD, listed as D): approximately 10 h
- CL/F [3, 8]: 4.3 L/h and 5.6 L/h and 4.8 L/h and 3.8 L/h and 5.4 L/h and 4.7 L/h and 4.1 L/h
- Cmax [3, 8]: 1.5 mg/L (3×) and 1.3 mg/L and 1.6 mg/L and 1.4 mg/L and 1.8 mg/L
- MRT [3, 8]: 13 h (2×) and 18 h (2×) and 12 h (2×) and 19 h
- tmax [3, 8]: 1 h (3×) and 0.5 h (4×)
- t½ ([3]; individual healthy subjects, single oral 400 mg racemic VCD (Nirvanil), stereoisomer in plasma): 8.7 h and 12.9 h and 8.0 h and 13.0 h and 9.5 h and 7.9 h and 13 h
- CL/F [4, 9]: 29 ± 6 L/h
- Cmax [4, 9]: 0.6 ± 0.1 mg/L
- tmax [4, 9]: 1.4 ± 0.3 h
- t½ [4, 9]: 3.2 ± 1.4 h
- CL/F ([4]; individual epileptic patients): 36 L/h and 25 L/h (3×) and 38 L/h and 24 L/h
- Cmax ([4]; individual epileptic patients): 0.7 mg/L and 0.8 mg/L and 0.6 mg/L (3×) and 0.5 mg/L
- tmax ([4]; individual epileptic patients): 2.0 h and 1.5 h (3×) and 1.0 h and 1.25 h
- t½ ([4]; individual epileptic patients, last dosing interval): 2.1 h and 2.8 h and 5.2 h and 2.5 h and 5.3 h and 4.6 h
- CL/F [5, 9]: 46 ± 11 L/h
- Cmax [5, 9]: 0.61 ± 0.11 mg/L
- MRT [5, 9]: 4.7 ± 1.0 h
- tmax [5, 9]: 0.83 ± 0.51 h
- t½ [5, 9]: 3.3 ± 1.1 h
- half lives ([5]; epileptic patients): about 3 h
- CL/F [5, 10]: 60 L/h and 35 L/h and 45 L/h and 42 L/h (2×) and 30 L/h
- Cmax [5, 10]: 0.51 mg/L (3×) and 0.72 mg/L (2×) and 0.69 mg/L
- MRT [5, 10]: 3.3 h and 5.2 h and 4.5 h and 5.6 h and 5.4 h and 5.3 h
- tmax [5, 10]: 1.5 h (2×) and 0.5 h (4×)
- t½ [5, 10]: 1.2 h and 3.8 h (3×) and 2.7 h and 3.9 h

SMILES: CCCC(CCC)C(N)=O [VPD, Valpromide]
- teratogenicity [6]: has not been found to be teratogenic
- anticonvulsant potency relative to VPA [1]: three times more potent
